Source: patent US20230285365A1, “USE OF A DHODH INHIBITOR COMPOUND IN COMBINATION CANCER THERAPY” (Servier Pharmaceuticals LLC, priority 2020, published 2023)

Tested on: mouse lymphoma models (DLBCL, MCL, Burkitt lymphoma, Hodgkin lymphoma, undifferentiated lymphoma)
Assay: Growth inhibition study in tumor-bearing mice, various mouse lymphoma models
Type: in vivo
Settings: doses as in treatment table (Compound 1 100 mg/kg BID, rituximab 20 mg/kg BIW, CHOP), FIGS. 1-3
Text: See e.g., FIGS. 1-3, which show complete regression of certain diffuse large B-cell lymphoma (DLBCL), mantle cell lymphoma (MCL), Burkitt lymphoma, Hodgkin lymphoma, and undifferentiated lymphoma mouse models following treatment with Compound 1 and R-CHOP.
Growth Inhibition Study of Compound 1 with R-CHOP in Tumor-Bearing Mice.
Mice were implanted subcutaneously with 5×10^6 to 2×10^7 cells as required for each model. Tumor volumes were monitored twice a week until tumors reach approximately 150 mm^3. Once tumor burden was at this level, mice were randomized and treated with the following.
At the study end, tumor tissue, and plasma were collected 1 hr. post final dose of Compound 1. Treatment was well tolerated. FIGS. 1-3 show the percent change in tumor volume for the mouse models treated. […] A similar result was observed across the multiple subsets of lymphoma tested.

rituximab
tumor response (percent change in tumor volume): tumor growth continued
